Molecules are shown by their SMILES. Where a SMILES comes first, the peptide text is derived from it. [ ]: non-standard residue; d: D form.

In test [1] the test system is experimental model of RPGN. Kind of test: anti-GBM RPGN model, continuous infusion of selective ETA or ETB antagonist by subcutaneous osmotic minipumps. Format: in vivo, C57B1/6J mice. As to conditions: 100 nmol·kg−1·day−1 by minipump; for plasma urea concentration (index of renal failure): vehicle 34.3±6.1 mmol/L.
For test [2], the system named is murine podocyte cell line. Briefly: migration assay in cultured podocytes (Ibidi Culture-Insert, gap coverage). Format: cell-based, mouse. Particulars: coverage of 500 μm gap after 20 hours of culture; vs vehicle (RPMI with DMSO). The procedure: Selected experiments (migration studies) were performed in a murine podocyte cell line (Schiwek D et al, 2004) derived from isolated from kidneys of Immorto-Mouse® mice (Charles River, St. Louis, Mo., USA), carrying a temperature-sensitive mutant of the immortalizing SV40 large T antigen under control of the interferon-gamma (INF-γ)-inducible H-2 Kb promoter. Migration assays were performed in μ-Dish 35 mm high with Culture-Insert (Ibidi). Ibidi's wounding inserts were used for cell migration or cell invasion studies. […] The inserts can be inserted into any bio-compatible surface and used to culture one or multiple cell lines. These inserts have two wells that create 2 distinct cell patches with a defined gap of 500 μm. The coverage of this gap after 20 hours of culture was assessed in the presence of the selective ETA antagonist BQ123 or the ETB antagonist BQ 788 (Calbiochem) or vehicle (RPMI with DMSO).

Test [3] has as its system accelerated anti-GBM RPGN model. Kind of test: accelerated anti-GBM RPGN model, bosentan mixed with food. As to conditions: bosentan 50 mg/kg/d oral in food. It counts as in vivo, C57B1/6J mice.
Protocol: Male and female C57B1/6 mice weighing 20-25 g, 10 weeks old, purchased from Charles River France, were housed in a room with a 12 h light-dark cycle with water and food ad libido. […] The animals were sacrificed by injection of pentobarbital (100 mg/kg i.p.)
The accelerated anti-GBM RPGN model was used, as previously described in Topham P S et al, 1999 and Lloyd C M et al, 1997. Briefly, C57B1/6J male mice were given subcutaneous injections of 200 μg normal sheep IgG (100 μl into each flank of normal sheep IgG (Sigma) diluted to 1 mg/ml in a solution of 50% Freund's complete adjuvent and 50% saline). Six days later (day 1), GN was induced by intravenous injection of 50 μL sheep anti-glomerular basement membrane (GBM) serum diluted to 70 mg/ml in saline. Serum injections were repeated twice (on days 2 and 3), with the serum volume increased to 250 μL. From days 0 to 14, mice were given bosentan, an orally active endothelin antagonist (designated chemically as 4-tert-butyl-N-[6-(2-hydroxy-ethoxy)-5-(2-methoxy-phenoxy)-[2,2′]-bipyrimidin-4-yl]-benzenesulfonamide monohydrate). We manually grinded 62.5 mg film-coated tablets of […] ® (bosentan) for oral administration and mixed them with powdered food supplied to the animals at an active dose of 50 mg/kg/d for 14 days as previously described^3. […] The treated group (n=7) was compared to vehicle-treated animals (n=6). […]
Normalized albumin urinary excretion was evaluated from urine samples collected for 18 h in metabolic cages (Techniplast). Urinary creatinine and albumin were quantified spectrophotometrically using colorimetric methods (Olympus).
For light microscopy, half mouse kidneys were fixed and embedded in paraffin, and 3 μm-thick sections were cut. Histopathological changes were evaluated using Masson's trichrome coloration by an examiner who was blind to the experimental conditions. The proportion of crescentic glomeruli was determined by examination of at least 50 glomeruli per section.

Consider `CC(C)C[C@@H]1NC(=O)[C@@H](C(C)C)NC(=O)[C@@H]2CCCN2C(=O)[C@@H](CC(=O)O)NC(=O)[C@@H](Cc2c[nH]c3ccccc23)NC1=O` [BQ123] (cyclo(L[dW][dD]P[dV])), for which, in test [1], the “plasma urea concentration (index of renal failure)” value was determined as 17.5 ± 2.5 mmol/L.
In the case of `CCCC[C@@H](NC(=O)[C@@H](Cc1cn(C(=O)OC)c2ccccc12)NC(=O)[C@H](CC(C)(C)C)NC(=O)N1[C@H](C)CCC[C@@H]1C)C(=O)O` [BQ788], the “migration of cultured podocytes” value in test [2] is reported as “prominent action”. The “Albuminuria normalized to creatininuria” value in test [1] (day 7 after infusion of the anti-GBM serum, versus PBS-treated animals) is “prominent action”. The “plasma urea concentration (index of renal failure)” value in test [1] is 12.3 ± 2.1 mmol/L.
In the case of `COc1ccccc1Oc1c(NS(=O)(=O)c2ccc(C(C)(C)C)cc2)nc(-c2ncccn2)nc1OCCO` [bosentan, 4-tert-butyl-N-[6-(2-hydroxy-ethoxy)-5-(2-methoxy-phenoxy)-[2,2′]-bipyrimidin-4-yl]-benzenesulfonamide monohydrate], the “Albuminuria normalized to creatininuria, fold lower than in vehicle-treated counterparts” value in test [3] (day 5 after infusion of the anti-GBM serum, p=0.0053) is on record as 5.8 fold. Besides, in test [3] (day 14 after infusion of the anti-GBM serum, p=0.0057), the “crescentic glomeruli, fold less than in vehicle-treated counterparts” value was determined as 14 fold. In addition, in test [3] (mice with anti-GBM serum-induced RPGN), the “fibrinogen deposition in glomeruli with disappearance of podocin positive podocytes” value is reported as “blunted”.

For the origin of these results see patent US20120283190A1, “ENDOTHELIN INHIBITORS FOR THE TREATMENT OF RAPIDLY PROGRESSIVE GLOMERULONEPHRITIS” (Institut National De La Santé Et De La Recherche Medicale …, priority 2009, published 2012).
